Active and inactive are the calls of the source. The calls are words filed in the database; no cut-off is given here.
Key:
[1] = biological target: T1, Sphingosine 1-phosphate receptor 1 (Homo sapiens, UniProt P21453); assay: Induction of human GFP-tagged chimeric S1P1R internalization in human U2Os cells by fluorescence microscopy relative to 1-(4-(6-benzylbenzofuran-2-yl)-3-fluorobenzyl)azetidine-3-carboxylic acid; format: cell-based
[2] = biological target: T2, Sphingosine 1-phosphate receptor 3 (Homo sapiens, UniProt Q99500); assay: Agonist activity at human S1P3R expressed in CHO cells by Ca(2+) mobilization assay; format: functional, cell-based
T2 sequence (Q99500 whole entry): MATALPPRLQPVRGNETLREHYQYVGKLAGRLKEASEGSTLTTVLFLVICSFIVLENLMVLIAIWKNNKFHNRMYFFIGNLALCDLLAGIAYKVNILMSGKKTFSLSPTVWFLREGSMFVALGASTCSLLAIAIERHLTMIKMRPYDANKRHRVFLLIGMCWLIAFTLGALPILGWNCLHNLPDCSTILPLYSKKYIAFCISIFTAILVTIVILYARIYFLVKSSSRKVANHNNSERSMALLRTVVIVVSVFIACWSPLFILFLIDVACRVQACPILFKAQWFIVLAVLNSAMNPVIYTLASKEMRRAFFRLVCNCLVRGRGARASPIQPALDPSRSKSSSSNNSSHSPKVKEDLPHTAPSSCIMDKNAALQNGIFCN

[3] = biological target: T2, Sphingosine 1-phosphate receptor 3; assay: Agonist activity at human S1P3R expressed in CHO cells by Ca(2+) mobilization assay relative to S1P; format: functional, cell-based; design: concentration or dose not given beside the values
[4] = biological target: T1, Sphingosine 1-phosphate receptor 1; assay: Induction of human GFP-tagged chimeric S1P1R internalization in human U2Os cells by fluorescence microscopy; format: cell-based
[5] = biological target: T2, Sphingosine 1-phosphate receptor 3; assay: Agonist activity at human S1P3R expressed in CHO cells at 2.5 uM by Ca(2+) mobilization assay relative to S1P; format: functional, cell-based
Rattus norvegicus [6] = assay: Lymphopenic activity in Lewis rat assessed as reduction in blood lymphocyte counts at 1 mg/kg, po administered as single dose measured 24 hrs post dose; format: functional, organism-based; design: dose 1 mg/kg
[7] = Mean residence time in Sprague-Dawley rat at 1 mg/kg, iv or 2 mg/kg, po; format: ADME, organism-based; conditions: in vivo
[8] = Half life in Beagle dog at 1 mg/kg, iv or 1 mg/kg, po; format: ADME, organism-based, Canis lupus familiaris; conditions: in vivo
[9] = Mean residence time in Beagle dog at 1 mg/kg, iv or 1 mg/kg, po; format: ADME, organism-based, Canis lupus familiaris; conditions: in vivo
[10] = biological target: Voltage-gated inwardly rectifying potassium channel KCNH2 (Homo sapiens, UniProt Q12809); assay: Inhibition of human ERG at 2.3 uM by patch-clamp method
Voltage-gated inwardly rectifying potassium channel KCNH2, sequence (Q12809 whole entry): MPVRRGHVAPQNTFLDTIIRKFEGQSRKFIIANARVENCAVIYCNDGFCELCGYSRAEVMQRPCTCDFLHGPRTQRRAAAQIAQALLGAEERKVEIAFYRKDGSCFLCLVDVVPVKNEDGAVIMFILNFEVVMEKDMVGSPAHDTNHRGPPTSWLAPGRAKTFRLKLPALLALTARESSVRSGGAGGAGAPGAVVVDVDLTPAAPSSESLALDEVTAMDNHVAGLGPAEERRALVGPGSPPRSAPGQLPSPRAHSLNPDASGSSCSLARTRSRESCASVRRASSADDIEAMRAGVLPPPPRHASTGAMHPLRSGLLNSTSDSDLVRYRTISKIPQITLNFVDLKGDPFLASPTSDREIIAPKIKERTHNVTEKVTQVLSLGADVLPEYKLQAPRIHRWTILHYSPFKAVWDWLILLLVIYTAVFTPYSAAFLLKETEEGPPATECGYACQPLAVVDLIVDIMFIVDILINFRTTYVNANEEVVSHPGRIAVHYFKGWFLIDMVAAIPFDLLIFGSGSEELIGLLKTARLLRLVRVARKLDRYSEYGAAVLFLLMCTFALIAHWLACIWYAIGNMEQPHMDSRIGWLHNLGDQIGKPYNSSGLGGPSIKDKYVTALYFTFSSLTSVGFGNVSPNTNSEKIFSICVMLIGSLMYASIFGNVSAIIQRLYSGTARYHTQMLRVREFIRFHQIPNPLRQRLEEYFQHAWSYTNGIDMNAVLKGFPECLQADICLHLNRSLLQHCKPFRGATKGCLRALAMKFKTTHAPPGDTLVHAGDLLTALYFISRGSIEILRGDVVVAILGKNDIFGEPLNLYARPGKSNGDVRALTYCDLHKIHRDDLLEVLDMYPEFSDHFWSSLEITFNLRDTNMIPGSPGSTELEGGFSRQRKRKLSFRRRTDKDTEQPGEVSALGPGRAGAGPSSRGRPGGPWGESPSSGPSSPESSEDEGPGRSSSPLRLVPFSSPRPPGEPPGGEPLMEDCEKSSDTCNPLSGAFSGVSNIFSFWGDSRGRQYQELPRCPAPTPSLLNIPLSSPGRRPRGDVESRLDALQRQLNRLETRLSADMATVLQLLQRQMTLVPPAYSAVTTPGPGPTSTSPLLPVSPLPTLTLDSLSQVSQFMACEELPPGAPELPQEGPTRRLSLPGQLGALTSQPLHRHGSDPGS

Rattus norvegicus [11] = assay: Reduction of disease score in experimental autoimmune encephalitis Lewis rat model of multiple sclerosis at 2 ug/day, po administered at the time of immunization with guinea pig myelin basic protein
[12] = Clearance in cynomolgus monkey at 1 mg/kg, iv or 1 mg/kg, po; format: ADME, organism-based, Macaca fascicularis; conditions: in vivo
Rattus norvegicus [13] = assay: Induction of delay in onset of disease in experimental autoimmune encephalitis Lewis rat model of multiple sclerosis at 20 ug/day, po administered at the time of immunization with guinea pig myelin basic protein
Rattus norvegicus [14] = assay: Lymphopenic activity in Lewis rat assessed as reduction in blood lymphocyte counts at 0.03 mg/kg, po administered as single dose measured 24 hrs post dose; format: functional
[15] = Oral bioavailability in cynomolgus monkey 1 mg/kg; format: ADME, organism-based, Macaca fascicularis; conditions: in vivo
[16] = Mean residence time in cynomolgus monkey at 1 mg/kg, iv or 1 mg/kg, po; format: ADME, organism-based, Macaca fascicularis; conditions: in vivo
[17] = Half life in cynomolgus monkey at 1 mg/kg, iv or 1 mg/kg, po; format: ADME, organism-based, Macaca fascicularis; conditions: in vivo
Rattus norvegicus [18] = assay: Lymphopenic activity in orally dosed Lewis rat assessed as reduction in blood lymphocyte counts measured 24 hrs post dose; format: functional, organism-based
[19] = Volume of distribution at steady state in cynomolgus monkey at 1 mg/kg, iv or 1 mg/kg, po; format: ADME, organism-based, Macaca fascicularis; conditions: in vivo, read-out: Vdss
Rattus norvegicus [20] = assay: Toxicity in telemetered Sprague-Dawley rat assessed as effect on heart rate at 10 mg/kg, po; format: organism-based; design: dose 10 mg/kg, route oral; conditions: in vivo
[21] = Oral bioavailability in Beagle dog 1 mg/kg; format: ADME, organism-based, Canis lupus familiaris; conditions: in vivo
[22] = Volume of distribution at steady state in Beagle dog at 1 mg/kg, iv or 1 mg/kg, po; format: ADME, organism-based, Canis lupus familiaris; conditions: in vivo, read-out: Vdss
Rattus norvegicus [23] = assay: Reduction of disease score in experimental autoimmune encephalitis Lewis rat model of multiple sclerosis at 20 ug/day, po administered at the time of immunization with guinea pig myelin basic protein
[24] = Mutagenic activity in Salmonella Typhimurium by Ames assay; format: toxicity; conditions: salmonella enterica subsp. enterica serovar typhimurium
[25] = Oral bioavailability in Sprague-Dawley rat 2 mg/kg; format: ADME, organism-based; conditions: in vivo
[26] = Inhibition of Cytochrome P450; format: ADME
Rattus norvegicus [27] = assay: Lymphopenic activity in Lewis rat assessed as reduction in blood lymphocyte counts at 0.1 mg/kg, po administered as single dose measured 24 hrs post dose; format: functional
[28] = biological target: T3, Sphingosine 1-phosphate receptor 4 (Homo sapiens) (UniProt O95977); assay: Agonist activity at human S1P4R expressed in CHO cells by Ca(2+) mobilization assay; format: functional, cell-based
T3 sequence (whole entry): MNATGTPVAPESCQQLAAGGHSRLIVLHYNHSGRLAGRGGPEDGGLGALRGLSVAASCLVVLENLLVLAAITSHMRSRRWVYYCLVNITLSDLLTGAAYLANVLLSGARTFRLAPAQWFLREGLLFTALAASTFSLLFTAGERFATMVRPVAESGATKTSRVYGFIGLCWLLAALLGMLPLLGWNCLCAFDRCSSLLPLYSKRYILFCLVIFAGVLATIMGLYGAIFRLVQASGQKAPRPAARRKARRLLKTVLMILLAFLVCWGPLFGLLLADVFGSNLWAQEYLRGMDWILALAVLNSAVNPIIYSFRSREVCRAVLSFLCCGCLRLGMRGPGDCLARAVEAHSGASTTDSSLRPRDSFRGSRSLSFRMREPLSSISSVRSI

[29] = Clearance in Beagle dog at 1 mg/kg, iv or 1 mg/kg, po; format: ADME, organism-based, Canis lupus familiaris; conditions: in vivo
[30] = biological target: T4, Sphingosine 1-phosphate receptor 5 (Homo sapiens, UniProt Q9H228); assay: Agonist activity at human S1P5R expressed in CHO cells by Ca(2+) mobilization assay; format: functional, cell-based
T4 sequence (Q9H228 whole entry): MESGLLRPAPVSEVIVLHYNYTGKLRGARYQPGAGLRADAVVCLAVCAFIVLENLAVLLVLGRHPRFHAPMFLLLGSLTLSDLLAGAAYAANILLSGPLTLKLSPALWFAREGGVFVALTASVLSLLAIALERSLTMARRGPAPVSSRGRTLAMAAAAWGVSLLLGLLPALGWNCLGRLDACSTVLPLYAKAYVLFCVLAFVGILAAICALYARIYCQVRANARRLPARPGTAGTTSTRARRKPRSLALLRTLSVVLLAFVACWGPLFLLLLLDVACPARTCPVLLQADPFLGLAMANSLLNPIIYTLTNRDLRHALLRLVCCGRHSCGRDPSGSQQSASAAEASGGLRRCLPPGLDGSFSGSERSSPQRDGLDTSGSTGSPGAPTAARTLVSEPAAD

[31] = biological target: Sphingosine 1-phosphate receptor 2 (Homo sapiens) (UniProt O95136); assay: Agonist activity at human S1P2R expressed in CHO cells by Ca(2+) mobilization assay; format: functional, cell-based
Sphingosine 1-phosphate receptor 2 (Homo sapiens), sequence (O95136 whole entry): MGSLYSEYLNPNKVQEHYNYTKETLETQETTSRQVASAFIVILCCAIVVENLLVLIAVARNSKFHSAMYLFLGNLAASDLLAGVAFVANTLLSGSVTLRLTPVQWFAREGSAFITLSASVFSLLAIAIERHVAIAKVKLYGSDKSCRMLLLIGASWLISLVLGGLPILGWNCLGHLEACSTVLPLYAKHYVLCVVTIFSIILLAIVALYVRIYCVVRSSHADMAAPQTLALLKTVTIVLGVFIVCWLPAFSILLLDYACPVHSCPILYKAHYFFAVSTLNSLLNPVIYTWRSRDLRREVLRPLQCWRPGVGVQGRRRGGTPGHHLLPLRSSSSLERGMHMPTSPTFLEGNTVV

Rattus norvegicus [32] = assay: Toxicity in telemetered Sprague-Dawley rat assessed as change in mean arterial pressure at 10 mg/kg, po; format: organism-based, Artery; design: dose 10 mg/kg, route oral; conditions: in vivo
[33] = Clearance in Sprague-Dawley rat at 1 mg/kg, iv or 2 mg/kg, po; format: ADME, organism-based; conditions: in vivo
[34] = biological target: T4, Sphingosine 1-phosphate receptor 5; assay: Agonist activity at human S1P5R expressed in CHO cells by Ca(2+) mobilization assay relative to control; format: functional, cell-based
[35] = Volume of distribution at steady state in Sprague-Dawley rat at 1 mg/kg, iv or 2 mg/kg, po; format: ADME, organism-based; conditions: in vivo, read-out: Vdss
[36] = Half life in Sprague-Dawley rat at 1 mg/kg, iv or 2 mg/kg, po; format: ADME, organism-based; conditions: in vivo

T1 sequence (P21453 whole entry): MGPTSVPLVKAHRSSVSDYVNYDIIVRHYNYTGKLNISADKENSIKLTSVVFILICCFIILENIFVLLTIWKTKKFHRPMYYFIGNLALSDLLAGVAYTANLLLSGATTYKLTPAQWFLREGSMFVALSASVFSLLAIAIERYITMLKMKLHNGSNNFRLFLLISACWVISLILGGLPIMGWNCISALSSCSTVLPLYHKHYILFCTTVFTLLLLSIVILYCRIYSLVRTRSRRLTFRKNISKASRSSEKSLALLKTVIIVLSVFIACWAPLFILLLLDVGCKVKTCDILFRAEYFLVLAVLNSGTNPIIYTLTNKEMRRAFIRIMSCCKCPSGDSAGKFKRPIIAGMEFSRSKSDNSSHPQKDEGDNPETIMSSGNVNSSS

CC(C)(c1ccccc1)c1ccc2nc(-c3ccc(CN4CC(C(=O)O)C4)cc3F)sc2n1
Efficacy [1]: 103% | EC50 [2]: 2510 nM | Activity [3]: 64% | EC50 [4]: 33 nM

O=C(O)C1CN(Cc2ccc(-c3nc4ccc(C5(c6ccccc6)CCCC5)nc4s3)c(F)c2)C1
Efficacy [5]: 12% | Efficacy [1]: 76% | EC50 [4]: 26 nM

O=C(O)C1CN(Cc2ccc(-c3nc4nc(Cc5ccccc5)ccc4s3)c(F)c2)C1
Efficacy [1]: 106% | EC50 [2]: 10100 nM | Activity [3]: 63% | EC50 [4]: 144 nM

O=C(O)C1CN(Cc2ccc(-c3nc4ccc(C5(c6ccccc6)CCC5)nc4s3)c(F)c2)C1
Efficacy [1]: 124% | EC50 [2]: 1310 nM | Activity [3]: 68% | EC50 [4]: 119 nM

O=C(O)C1CN(Cc2ccc(-c3nc4cc(Cc5ccccc5)ncc4s3)c(F)c2)C1
Efficacy [1]: 115% | EC50 [2]: > 25000 nM | EC50 [4]: 429 nM

O=C(O)C1CN(Cc2ccc(-c3nc4ccc(Cc5ccccc5)nc4s3)c(F)c2)C1
Efficacy [1]: 92% | EC50 [2]: 478 nM | Activity [3]: 94% | EC50 [4]: 199 nM

O=C(O)C1CN(Cc2ccc(-c3nc4cc(Cc5ccccc5)ccc4s3)c(F)c2)C1
inhibition (Rattus norvegicus [6]): Active | Efficacy [1]: 102% | Activity [3]: 24%

C[C@H](c1ccccc1)c1ccc2nc(-c3ccc(CN4CC(C(=O)O)C4)cc3F)sc2n1
Efficacy [1]: 87% | EC50 [2]: 996 nM | Activity [3]: 45% | EC50 [4]: 38 nM

O=C(O)C1CN(Cc2ccc(-c3nc4ccc(Cc5ccccc5)cc4s3)c(F)c2)C1
EC50 [2]: 3470 nM | Activity [3]: 50% | EC50 [4]: 221 nM

O=C(O)C1CN(Cc2ccc(-c3nc4cc(Cc5ccccc5)cnc4s3)c(F)c2)C1
Efficacy [1]: 125% | EC50 [2]: 2890 nM | Activity [3]: 36% | EC50 [4]: 138 nM

C[C@@H](c1ccccc1)c1ccc2nc(-c3ccc(CN4CC(C(=O)O)C4)cc3F)sc2n1
Efficacy [1]: 99% | EC50 [2]: 877 nM | Activity [3]: 44% | EC50 [4]: 35 nM

O=C(O)C1CN(Cc2ccc(-c3nc4ccc(C5(c6ccccc6)CC5)cc4s3)c(F)c2)C1
Efficacy [1]: 93% | EC50 [2]: 4670 nM | Activity [3]: 56% | EC50 [4]: 38 nM

O=C(O)C1CN(Cc2ccc(-c3nc4ccc(C5(c6ccccc6)CCCCC5)nc4s3)c(F)c2)C1
Efficacy [1]: 108% | EC50 [2]: 836 nM | Activity [3]: 41% | EC50 [4]: 33 nM

O=C(O)C1CN(Cc2ccc(-c3nc4cnc(Cc5ccccc5)cc4s3)c(F)c2)C1
Efficacy [1]: 77% | EC50 [2]: 5460 nM | Activity [3]: 64% | EC50 [4]: 3980 nM

O=C(O)C1CN(Cc2ccc(-c3nc4ccc(C5(c6ccccc6)CC5)nc4s3)c(F)c2)C1
Efficacy [1]: 98% | MRT [7]: 10 h | half-life [8]: 38 h | MRT [9]: 17 h | inhibition (INH) [10]: Not Active | Activity (Rattus norvegicus [11]): inactive | clearance [12]: 8.33 mL/min/kg | Activity (Rattus norvegicus [13]): Active | inhibition in vivo at 0.03 mg/kg (Rattus norvegicus [14]): 45% | bioavailability [15]: 34% | MRT [16]: 4.7 h | half-life [17]: 24 h | inhibition (Rattus norvegicus [18]): Dose-dependent effect | Vd [19]: 2.3 L/kg | Activity (Rattus norvegicus [20]): Non-toxic | bioavailability [21]: 41% | Activity [3]: 26% | Vd [22]: 1.2 L/kg | Activity (Rattus norvegicus [23]): Active | Activity [24]: Non-toxic | bioavailability [25]: 64% | inhibition (INH) [26]: Not Active | inhibition in vivo at 0.1 mg/kg (Rattus norvegicus [27]): 65% | Activity [28]: inactive | clearance [29]: 1.18 mL/min/kg | EC50 [30]: 29 nM | Activity [31]: inactive | Activity (Rattus norvegicus [32]): Non-toxic | clearance [33]: 3 mL/min/kg | Efficacy [34]: 50% | Vd [35]: 1.8 L/kg | half-life [36]: 5.9 h

O=C(O)C1CN(Cc2ccc(-c3nc4ncc(Cc5ccccc5)cc4s3)c(F)c2)C1
Efficacy [1]: 75% | EC50 [2]: > 25000 nM | EC50 [4]: 1600 nM
